In assay [1] the test system is Polyketide synthase Pks13 (Mycobacterium tuberculosis (strain ATCC 25618 / H37Rv)), I6X8D2 [D1644G,N1640K]. Kind of assay: Inhibition of Pks13 D1644G/N1640K double mutant thioesterase domain in Mycobacterium tuberculosis H37Rv assessed as reduction in bacterial growth by microplate alamar blue assay.
The test system is the same in assay [2]. Kind of assay: Inhibition of Pks13 D1644G/N1640K double mutant thioesterase domain in extensively drug-resistant Mycobacterium tuberculosis R506 assessed as reduction in bacterial growth by microplate alamar blue assay.
Assay [3] shares this test system. Kind of assay: Inhibition of Pks13 D1644G/N1640K double mutant thioesterase domain in drug-susceptible Mycobacterium tuberculosis V4207 assessed as reduction in bacterial growth by microplate alamar blue assay.
Assay [4] shares this test system. Kind of assay: Inhibition of Pks13 D1644G/N1640K double mutant thioesterase domain in multidrug-resistant Mycobacterium tuberculosis KZN494 assessed as reduction in bacterial growth by microplate alamar blue assay.
The test system is the same in assay [5]. Kind of assay: Inhibition of Pks13 D1644G/N1640K double mutant thioesterase domain in extensively drug-resistant Mycobacterium tuberculosis TF274 assessed as reduction in bacterial growth by microplate alamar blue assay.
Assay [6] has the same test system. Kind of assay: Inhibition of Pks13 D1644G/N1640K double mutant thioesterase domain in multidrug-resistant Mycobacterium tuberculosis V2475 assessed as reduction in bacterial growth by microplate alamar blue assay.

SMILES strings stand for the structures. In brackets after ≈: the same amount, converted by molar mass. Bounds are passed on as bounds.

As for `O=c1oc2cc(O)ccc2c2oc3cc(O)c(O)c(CN4CCCCC4)c3c12`, the MIC=<90 in assay [1] came to 2 µg/mL (≈ 5.24 µM).

As to `CNC(=O)c1c(-c2ccc(O)cc2)oc2ccc(O)c(CN3CCCCC3)c12`, the MIC=<90 in assay [1] came out at 0.0313 µg/mL (≈ 0.0823 µM).

Regarding `CC(C)(C)c1cc(O)c(CN2CCCCC2)c2c1oc1c3ccccc3oc(=O)c12`, in assay [1], the MIC=<90 lay in the range of 0.0625 to 0.125 µg/mL (≈ 0.154 to 0.308 µM).

Consider `CC[C@@H](CO)NCCN[C@@H](CC)CO`, for which the MIC=<90 in assay [1] is 1 µg/mL (≈ 4.89 µM).

In the case of `Cc1cc(O)c(CN2CCCCC2)c2c1oc1c3ccccc3oc(=O)c12`, in assay [1], the MIC=<90 came to 0.125 µg/mL (≈ 0.344 µM).

In the case of `NC[C@H]1O[C@H](O[C@H]2[C@H](O)[C@@H](O[C@H]3O[C@H](CO)[C@@H](O)[C@H](N)[C@H]3O)[C@H](N)C[C@@H]2N)[C@H](O)[C@@H](O)[C@@H]1O`, the MIC=<90 in assay [2] is more than 128 µg/mL; in assay [3] it was 2 µg/mL (≈ 4.13 µM); in assay [4], 2 µg/mL (≈ 4.13 µM); in assay [5], more than 128 µg/mL; in assay [6] it was 2 µg/mL (≈ 4.13 µM); in assay [1], 2 µg/mL (≈ 4.13 µM).

With `CO[C@H]1/C=C/O[C@@]2(C)Oc3c(C)c(O)c4c(O)c(c(/C=N/N5CCN(C)CC5)c(O)c4c3C2=O)NC(=O)/C(C)=C\C=C\[C@H](C)[C@H](O)[C@@H](C)[C@@H](O)[C@@H](C)[C@H](OC(C)=O)[C@@H]1C`, the MIC=<90 was more than 128 µg/mL in assay [2]; 0.0625 µg/mL (≈ 0.0759 µM) in assay [3]; 128 µg/mL (≈ 156 µM) in assay [4]; more than 128 µg/mL in assay [5]; 4 µg/mL (≈ 4.86 µM) in assay [6]; 0.125 µg/mL (≈ 0.152 µM) in assay [1].

On to `O=c1oc2ccccc2c2oc3cc(O)c(O)c(CN4CCCCC4)c3c12`, for which the MIC=<90 in assay [1] was determined as 4 µg/mL (≈ 10.9 µM).

For the molecule `COc1c(N2C[C@@H]3CCCN[C@@H]3C2)c(F)cc2c(=O)c(C(=O)O)cn(C3CC3)c12`, in assay [1], the MIC=<90 lay within 0.0625 to 0.125 µg/mL (≈ 0.156 to 0.311 µM).

Consider `COc1ccc2oc3c4ccccc4oc(=O)c3c2c1C(=O)N1CCCCC1`, for which the MIC=<90 in assay [1] was more than 64 µg/mL.

Regarding `O=c1oc2ccccc2c2oc3c(Cl)cc(O)c(CN4CCCCC4)c3c12`, the MIC=<90 in assay [1] came to 2 µg/mL (≈ 5.21 µM).

Turning to `O=C(c1c(O)ccc2oc3c4ccccc4oc(=O)c3c12)N1CCCCC1`, the MIC=<90 in assay [1] is more than 64 µg/mL.

Consider `O=C1CCCCN1Cc1c(O)ccc2oc3c4ccccc4oc(=O)c3c12`, for which the MIC=<90 in assay [1] was more than 64 µg/mL.

As to `COc1ccc2oc3c4ccccc4oc(=O)c3c2c1CN1CCCC1=O`, the MIC=<90 in assay [1] is more than 64 µg/mL.

In the case of `COc1ccc2oc3c4ccccc4oc(=O)c3c2c1CN1CCCCC1=O`, the MIC=<90 in assay [1] was more than 64 µg/mL.

With `CCOC(=O)c1c(-c2ccccc2)oc2ccc(O)c(CN3CCC(C)CC3)c12`, the MIC=<90 in assay [1] was determined as 1 µg/mL (≈ 2.54 µM).

`C[C@H]1COc2c(N3CCN(C)CC3)c(F)cc3c(=O)c(C(=O)O)cn1c23`: the MIC=<90 in assay [2] was determined as 2 µg/mL (≈ 5.53 µM); in assay [3], 0.125 µg/mL (≈ 0.346 µM); in assay [5], 1 µg/mL (≈ 2.77 µM); in assay [1], 0.25 µg/mL (≈ 0.692 µM).

On to `CC(C)(C)c1cc(O)c(CN2CCCCC2)c2c1oc1c3ccc(O)cc3oc(=O)c12`, for which the MIC=<90 in assay [2] is 0.0039 µg/mL (≈ 0.00925 µM); in assay [3] it was 0.0039 to 0.0078 µg/mL (≈ 0.00925 to 0.0185 µM); in assay [4], 0.001 to 0.002 µg/mL (≈ 0.00237 to 0.00475 µM); in assay [5], 0.0039 µg/mL (≈ 0.00925 µM); in assay [6], 0.0156 µg/mL (≈ 0.037 µM); in assay [1], 0.0039 µg/mL (≈ 0.00925 µM).

On to `O=C(c1cc2oc3c4ccccc4oc(=O)c3c2cc1O)N1CCCCC1`, for which, in assay [1], the MIC=<90 was more than 64 µg/mL.

As to `C[C@@H]1NC(=O)[C@@H](N)CNC(=O)[C@H](C2CCNC(=N)N2)NC(=O)/C(=C/NC(N)=O)NC(=O)[C@H](CNC(=O)CC(N)CCCN)NC1=O.N=C1NCCC([C@@H]2NC(=O)/C(=C/NC(N)=O)NC(=O)[C@H](CNC(=O)CC(N)CCCN)NC(=O)[C@H](CO)NC(=O)[C@@H](N)CNC2=O)N1` (stereo partly specified), in assay [1], the MIC=<90 stood at 1 µg/mL.

On to `CC1COc2c(N3CCN(C)CC3)c(F)cc3c(=O)c(C(=O)O)cn1c23` (stereo unspecified), for which the MIC=<90 amounted to 4 µg/mL (≈ 11.1 µM) in assay [2]; 0.5 µg/mL (≈ 1.38 µM) in assay [3]; 0.5 µg/mL (≈ 1.38 µM) in assay [4]; 8 µg/mL (≈ 22.1 µM) in assay [5]; 0.5 µg/mL (≈ 1.38 µM) in assay [6].

With `O=c1oc2ccccc2c2oc3ccc(O)c(CN4CCCC4)c3c12`, in assay [1], the MIC=<90 amounted to 0.5 µg/mL (≈ 1.49 µM).

As for `O=c1oc2cc(O)ccc2c2oc3ccc(O)c(CN4CCCCC4)c3c12`, the MIC=<90 in assay [2] worked out at 0.0078 µg/mL (≈ 0.0213 µM); in assay [3], 0.0078 µg/mL (≈ 0.0213 µM); in assay [4], 0.0039 µg/mL (≈ 0.0107 µM); in assay [5] it was 0.0078 µg/mL (≈ 0.0213 µM); in assay [6] it was 0.0156 µg/mL (≈ 0.0427 µM); in assay [1], 0.0039 µg/mL (≈ 0.0107 µM).

For `NCC[C@H](O)C(=O)N[C@@H]1C[C@H](N)[C@@H](O[C@H]2O[C@H](CN)[C@@H](O)[C@H](O)[C@H]2O)[C@H](O)[C@H]1O[C@H]1O[C@H](CO)[C@@H](O)[C@H](N)[C@H]1O`, in assay [1], the MIC=<90 is 1 µg/mL (≈ 1.71 µM).

`CCOc1ccc2oc3c4ccccc4oc(=O)c3c2c1CN1CCCCC1=O`: the MIC=<90 in assay [1] was more than 64 µg/mL.

Consider `O=c1oc2ccccc2c2oc3cc(Br)c(O)c(CN4CCCCC4)c3c12`, for which the MIC=<90 in assay [1] was more than 64 µg/mL.

Consider `O=c1oc2ccccc2c2oc3cc([N+](=O)[O-])c(O)c(CN4CCCCC4)c3c12`, for which the MIC=<90 in assay [1] was more than 64 µg/mL.

Take `O=c1oc2ccccc2c2oc3ccc(O)cc3c12`: the MIC=<90 in assay [1] is more than 64 µg/mL.

For the molecule `O=c1oc2ccccc2c2oc3ccc(O)c(CN4CCCCC4)c3c12`, in assay [1], the MIC=<90 fell in the range of 0.125 to 0.25 µg/mL (≈ 0.358 to 0.716 µM).

`CC1CCCN(Cc2c(O)ccc3oc4c5ccccc5oc(=O)c4c23)C1` (stereo unspecified): in assay [1], the MIC=<90 came to 2 µg/mL (≈ 5.5 µM).

Take `O=C1CCCN1Cc1c(O)ccc2oc3c4ccccc4oc(=O)c3c12`: the MIC=<90 in assay [1] was more than 64 µg/mL.

On to `NNC(=O)c1ccncc1`, for which the MIC=<90 in assay [2] amounted to 8 µg/mL (≈ 58.3 µM); in assay [3] it was 0.04 µg/mL (≈ 0.292 µM); in assay [4] it was 16 µg/mL (≈ 117 µM); in assay [5], 8 µg/mL (≈ 58.3 µM); in assay [6], 16 µg/mL (≈ 117 µM); in assay [1] it was 0.04 µg/mL (≈ 0.292 µM).

As to `O=c1oc2ccccc2c2oc3c(Br)cc(O)c(CN4CCCCC4)c3c12`, the MIC=<90 in assay [1] is 2 µg/mL (≈ 4.67 µM).

For `COCCOc1ccc2oc3c4ccccc4oc(=O)c3c2c1CN1CCCCC1=O`, in assay [1], the MIC=<90 is more than 64 µg/mL.

As for `O=c1oc2ccccc2c2oc3cc(CN4CCCCC4)c(O)cc3c12`, the MIC=<90 in assay [1] is more than 64 µg/mL.

In the case of `CC1CCN(Cc2c(O)ccc3oc4c5ccccc5oc(=O)c4c23)CC1`, the MIC=<90 in assay [1] amounted to 0.5 µg/mL (≈ 1.38 µM).

Consider `COc1cc2oc3c4ccccc4oc(=O)c3c2c(CN2CCCCC2)c1O`, for which the MIC=<90 in assay [1] worked out at 2 µg/mL (≈ 5.27 µM).

Turning to `CC1CCCCN1Cc1c(O)ccc2oc3c4ccccc4oc(=O)c3c12` (stereo unspecified), in assay [1], the MIC=<90 stood at 1 µg/mL (≈ 2.75 µM).

Turning to `CC(C)(C)c1cc(O)c(CN2CCCCC2)c2c1oc1c3cc(O)ccc3oc(=O)c12`, the MIC=<90 in assay [1] amounted to 0.125 µg/mL (≈ 0.297 µM).

Regarding `O=C1CCCCCN1Cc1c(O)ccc2oc3c4ccccc4oc(=O)c3c12`, in assay [1], the MIC=<90 was more than 64 µg/mL.

Take `O=C(NCC1CC1)c1c(O)ccc2oc3c4ccccc4oc(=O)c3c12`: in assay [1], the MIC=<90 is more than 64 µg/mL.

Consider `O=c1oc2cc(O)c(O)cc2c2oc3cc(O)c(O)c(CN4CCCCC4)c3c12`, for which, in assay [1], the MIC=<90 is 32 µg/mL (≈ 80.5 µM).

Take `O=c1oc2ccc(O)cc2c2oc3ccc(O)c(CN4CCCCC4)c3c12`: the MIC=<90 in assay [1] worked out at 0.5 µg/mL (≈ 1.37 µM).

Take `COCCOc1ccc2oc3c4ccccc4oc(=O)c3c2c1CN1CCCC1=O`: the MIC=<90 in assay [1] is more than 64 µg/mL.
